The text below walks through data of patent US5234932A, “Substituted quinolines and leucotriene antagonism treatment therewith” (Leo Pharmaceutical Products ltd., priority 1989, dated 1993).

Structures can show the parent of a compound that is named as a salt.

The target in experiment [1] is T1, guinea-pig tracheal strips (LTD4) (Cavia porcellus, UniProt Q2NNR5).
T1 construct: from tissue; host or cells: guinea-pig tracheal strips
T1 sequence (Q2NNR5 1-340): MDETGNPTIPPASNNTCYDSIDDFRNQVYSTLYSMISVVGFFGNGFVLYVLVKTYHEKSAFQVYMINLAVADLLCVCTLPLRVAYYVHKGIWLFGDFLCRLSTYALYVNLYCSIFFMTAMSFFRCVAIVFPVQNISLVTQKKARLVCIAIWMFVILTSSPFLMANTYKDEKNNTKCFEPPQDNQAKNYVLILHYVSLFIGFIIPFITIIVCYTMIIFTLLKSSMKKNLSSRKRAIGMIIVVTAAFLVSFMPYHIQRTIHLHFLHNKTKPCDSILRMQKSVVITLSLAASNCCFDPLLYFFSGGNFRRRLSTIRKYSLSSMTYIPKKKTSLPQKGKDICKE
Put plainly: leukotriene antagonism on guinea-pig tracheal strips (LTD4 concentration-response). Type of experiment: cell-based. Particulars: negative logarithm of the antagonist dissociation constant, -log([antagonist]/(dose ratio -1)), indomethacin present. The source says:
Leukotriene antagonists may be further characterized using guinea-pig tracheal strips instead of ileum strips (10). In this relevant in vitro model of human airways (11) tracheal strips are suspended in a physiological buffer containing indomethacin. A concentration-response curve to LTD4 is generated in the presence and absence of the leukotriene antagonists. From these curves the potency of a leukotriene antagonist may be expressed as the pKB value, the negative logarithm of the antagonist dissociation constant. The pKB value is determined as -log([antagonist]/(dose ratio -1)), where the dose ratio is defined as EC50 (presence of antagonist)/EC50 (absence of antagonist) and EC50 refers to the concentration of LTD4 eliciting 50% of the maximum response to LTD4 (12).

The next experiment has as its target T2, LTD4 receptor (Cavia porcellus, UniProt Q2NNR5).
T2 construct: from tissue; host or cells: guinea-pig lung membranes
T2 sequence (Q2NNR5 1-340): T1 sequence (Q2NNR5 1-340)
Put plainly: [3H]LTD4 receptor binding, guinea-pig lung membranes, direct competition assay. Particulars: negative logarithm of the molar concentration inhibiting [3H]LTD4 binding by 50%. The source says: It is of importance to investigate the receptor binding properties of leukotriene antagonists in relation to their pKB values (13), i.e. to correlate antagonist receptor blocking with inhibition of smooth muscle contraction. Receptor binding studies may be performed with guinea-pig lung membranes in a direct competition assay between a leukotriene antagonist and [^3 H]LTD4 for binding to the LTD4 receptor (10,13).

Experiment [2] has as its system guinea-pig ileum strips (LTD4). Put plainly: inhibition of LTD4-induced contraction of guinea-pig ileum strips. It counts as cell-based. Particulars: LTD4 at 10^-9 M; compound added 2 minutes prior; atropine and indomethacin present. The procedure: Leukotriene antagonists may be identified by observing the contractions elicited in preparations of guinea-pig ileum strips suspended in a physiological buffer by addition of pure leukotriene D4 (LTD4) (10). The ileum strips are connected to an isotonic transducer, and the contractions are continuously recorded on a multichannel recorder. Before addition of LTD4, atropine and indomethacin are added to the buffer in order to block any cholinergic or prostaglandin mediated contractile effects. Test compounds to be studied with respect to leukotriene antagonism are dissolved in DMSO and added to the organ bath 2 minutes prior to addition of LTD4 at 10^-9 M (final concentration), the final concentration of DMSO being 0.1%, a concentration which can be shown not to affect the ileum response to LTD4. The test compounds may be added at various concentrations, often beginning at […] and then decreasing the concentration in case of antagonism.
When the compounds of the present invention were added to the ileum preparation before addition of LTD4 a significant inhibition occurred of the specific LTD4 -induced contraction. […] On other hand, contractions induced with histamine at 10^-7 M were not inhibited by these compounds even at micromolar concentrations.

The next experiment concerns cyclooxygenase. The experiment can be described thus: synthesis of cyclooxygenase products in A23187-stimulated rat peritoneal cells. It counts as cell-based. Particulars: final concentration of 10^-6 M. The procedure: (§1) The following method was used to assay 5-lipoxygenase activity in vitro: Rat peritoneal cells were harvested by i.p. injection of 10 ml Hank's balanced salt solution (GIBCO, cat No. 4025, U.S.A.) containing 12.5 U/ml sodium heparin (Leo, Denmark) in anaesthesized rats. The resulting cell suspension, which mainly contained macrophages, was transferred to a test tube and washed twice by centrifugation (200 g, 10 min.) and resuspended in Hank's balanced salt solution containing 0.5% bovine serum albumin (BSA) (Sigma Chem. Co., U.S.A.). The cells from 9 rats were finally resuspended in Hank's balanced salt solution (with BSA) containing 5μCi [1-^14 C]arachidonic acid (The Radiochemical Centre, Amersham, U.K.) and incubated for 90 minutes at 37° C. This caused labelling of cell membrane phospholipids as radioactive arachidonic acid was incorporated in the 2-position of the glycerol moiety. Excess arachidonic acid was then removed by washing the cells twice as described above. The cells were finally resuspended in the same solution (without BSA) at 10^7 cells/ml. 475 μl of the cell suspension was preincubated at 37° C. for 5 minutes with either 5 μl dimethylsalphoxide (DMSO) (control tube), or 5 μl of a drug solution in DMSO. Then 20 μl of a mixture of equal volumes of the calcium ionophore A23187, 10^-4 M in ethanol (Calbiochem, U.S.A.), and 0.4M CaCl2 in water was added. The final concentration of A23187 was thus 2×10^-6 M, and of Ca^++ 8 mM. After 5 minutes of incubation the tubes were transferred to an ice-bath and centrifuged for 10 minutes at 3,000 g (4° C.). An aliquot of the supernatant was counted by liquid scintillation spectrometry in order to calculate the total radioactive release induced by A23187 in presence of drugs. A decrease in radioactive release was taken as indication of phospholipase A2 inhibition. The supernatant was then extracted with ethyl acetate (2 ml), adjusted to pH 3 with 1N HCl and further extracted with 2 ml ethyl acetate. The combined extracts were evaporated to dryness in vacuo, the residue was redissolved in a small volume of methanol and applied by means of a Desaga Autospotter™ to a silica-gel coated thin-layer plate fitted with a polar concentrating zone (Merck Art. 11798, Darmstadt, F.R.G.). The plates were developed in the organic layer of the solvent mixture ethyl acetate/acetic acid/iso-octane/water (55:10:25:50). Radioactive spots were detected by autoradiography (AGFA-GEVAERT, Osray-RPI X-ray film, Belgium), and changes induced by drugs in the metabolic pattern of arachidonic acid were quantified by a laser densitometer (LKB, Ultroscan ™2202, Bromma, Sweden) in combination with an integrating computer (SP 4100, Spectra-Physics, San Jose, Calif., U.S.A.).
These cells produced measurable amounts of radioactive 6-keto-prostaglandinF1α, thromboxane B2, prostaglandin D2, hydroxyheptadecatrienoic acid (HHT) (all cyclooxygenase products), 5-hydroxyeicosatetraenoic acid (5-HETE) and leukotriene B4 (both 5-lipoxygenase products).
At the same time, a decrease in synthesis of the cyclooxygenase products HHT, prostaglandin D2, thromboxane B2 and 6-ketoprostaglandin F1α was not observed. This pattern of drug activity is indicative of truly specific 5-lipoxygenase inhibition.

The target of a further experiment is T3, 5-lipoxygenase (Rattus norvegicus, UniProt P12527).
T3 construct: LTB4 and 5-HETE measured by TLC
T3 sequence (P12527 1-673): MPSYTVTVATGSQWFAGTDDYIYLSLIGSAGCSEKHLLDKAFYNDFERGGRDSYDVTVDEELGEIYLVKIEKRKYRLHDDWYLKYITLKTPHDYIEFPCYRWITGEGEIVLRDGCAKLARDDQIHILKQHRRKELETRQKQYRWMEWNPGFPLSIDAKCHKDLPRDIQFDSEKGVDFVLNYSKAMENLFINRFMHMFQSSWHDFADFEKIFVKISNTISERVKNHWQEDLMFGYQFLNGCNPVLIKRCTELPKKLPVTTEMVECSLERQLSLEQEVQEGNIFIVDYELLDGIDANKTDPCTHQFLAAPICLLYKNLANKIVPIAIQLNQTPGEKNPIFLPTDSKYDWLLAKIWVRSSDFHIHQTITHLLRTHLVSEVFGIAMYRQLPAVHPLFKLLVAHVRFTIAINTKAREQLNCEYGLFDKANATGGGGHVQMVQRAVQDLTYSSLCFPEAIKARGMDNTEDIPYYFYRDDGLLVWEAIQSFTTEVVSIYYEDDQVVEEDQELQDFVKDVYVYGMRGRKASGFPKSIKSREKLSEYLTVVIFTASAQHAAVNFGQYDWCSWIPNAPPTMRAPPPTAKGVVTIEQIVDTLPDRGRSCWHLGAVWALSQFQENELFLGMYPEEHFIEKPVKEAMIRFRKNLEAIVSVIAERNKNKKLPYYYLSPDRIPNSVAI
The experiment can be described thus: 5-lipoxygenase activity in vitro (A23187-stimulated rat peritoneal cells, leukotriene B4 and 5-HETE production). Type of experiment: cell-based. Particulars: final concentration of 10^-6 M; A23187 2×10^-6 M. The procedure: as §1, with “Calif., U.S.A.). […]” for “Calif., U.S.A.).”

Turning to `O=C(O)C(Nc1cccc(OCc2ccc3ccccc3n2)c1)c1ccccc1` (racemic) [Example 15, (S,R)-2-[3-(2-Quinolylmethyloxy)-anilino]-2-phenyl acetic acid], the Kb in experiment [1] was 1 nM. This molecule also had an IC50 at LTD4 receptor of 15.8 nM.
As for `O=C(O)C(Nc1ccc(OCc2ccc3ccccc3n2)cc1)c1ccccc1` (racemic) [Example 17, (S,R)-2-[4-(2-Quinolylmethyloxy)-anilino]-2-phenyl acetic acid], in experiment [2], the “concentrations at which inhibition of LTD4-induced contraction occurred” value was “submicromolar range”.
On to `O=C(O)[C@H](O)[C@H](Nc1cccc(OCc2ccc3ccccc3n2)c1)c1ccccc1` (relative stereo) [Example 1, (2R,3R;2S,3S)-3-[3-(2-Quinolylmethoxy)-anilino]-2-hydroxy-3-phenyl propionic acid, sodium salt], for which, in experiment [1], the Kb is 0.2 nM. For the same molecule, the IC50 on LTD4 receptor is 2.51 nM.
As to `CCOC(=O)[C@H](O)[C@H](Nc1cccc(OCc2ccc3ccccc3n2)c1)c1cccc(Cl)c1` (relative stereo) [Example 9], in the experiment with cyclooxygenase, the “decrease in synthesis of the cyclooxygenase product 6-ketoprostaglandin F1α” value is “not observed”, the “decrease in synthesis of the cyclooxygenase product HHT” value is “not observed”, the “decrease in synthesis of the cyclooxygenase product prostaglandin D2” value was “not observed” and the “decrease in synthesis of the cyclooxygenase product thromboxane B2” value was “not observed”. Moreover, on 5-lipoxygenase, the “decrease in the production of 5-HETE” value is “significant and specific decrease”; the “decrease in the production of leukotriene B4” value was “significant and specific decrease”.
As to `CCOC(=O)[C@H](O)[C@H](Nc1ccc(OCc2ccc3ccccc3n2)cc1)c1ccccc1` (relative stereo) [Example 11, (2S,3R;2S,3S)-3-[4-(2-Quinolylmethyloxy)-anilino]-2-hydroxy-3-phenyl propionic acid ethyl ester], in the experiment with cyclooxygenase, the “decrease in synthesis of the cyclooxygenase product 6-ketoprostaglandin F1α” value is listed as “not observed”, the “decrease in synthesis of the cyclooxygenase product HHT” value is “not observed”, the “decrease in synthesis of the cyclooxygenase product prostaglandin D2” value is given as “not observed” and the “decrease in synthesis of the cyclooxygenase product thromboxane B2” value is on record as “not observed”. Further, at 5-lipoxygenase, the “decrease in the production of 5-HETE” value is “significant and specific decrease”; the “decrease in the production of leukotriene B4” value is “significant and specific decrease”.
